Source: patent US9522184B2, “CD89 activation in therapy” (CSL BEHRING AG, priority 2010, dated 2016)

Columns and labels:
neutrophils = experiment: Pan-caspase inhibition of IgA-mediated neutrophil cell death; type: cell-based, human; settings: qVD-OPh 20 μM, 24 hours, in the presence and absence of LPS and GM-CSF; FIG. 6
Excerpt: (§1) Antibodies: Anti-CD89 (Clone A59) (both unlabeled and phycoerythrin [PE]-conjugated), and PE-conjugated immunoglobulin G1 (IgG1) isotype control were from BD Biosciences (Basel, Switzerland). Goat anti-mouse IgG (GaM) and unlabelled control IgG1 were obtained from Jackson ImmunoResearch Laboratories (distributed by Milan Analytica, La Roche, Switzerland). Anti-Fas agonistic mAb (CH11) was obtained from LabForce AG (Nunningen, Switzerland). Pooled serum IgA was obtained from CSL Behring AG (Wankdorf, Bern), and was prepared as follows: IgA was purified from human plasma and side-fraction of the IVIg/SCIg manufacturing process by affinity chromatography using CaptureSelect Human IgA resin from BAC (Naarden, Netherlands). […] Cell purity was assessed by staining with Diff-Quik (Baxter, Düdingen, Switzerland) and light microscopy analysis. […] Immunofluorescence: CD89 surface expression was analyzed by flow cytometry following incubation of the cells with saturating concentrations of PE-conjugated anti-CD89 and isotype-matched PE-conjugated control mAbs. […] The caspase inhibitor qVD-OPh (quinoline-Val-Asp-difluorophenoxymethylketone) was used at […] Determination of Cell Death and Apoptosis: Cell death was assessed by uptake of 1 μM ethidium bromide and flow cytometric analysis (FACSCalibur, Becton Dickinson). […]

human neutrophils = experiment: CD89 surface expression on neutrophils by flow cytometry after inflammatory stimulus; type: cell-based
Excerpt: as §1

CC(C)[C@H](NC(=O)c1ccc2ccccc2n1)C(=O)N[C@@H](CC(=O)O)C(=O)COc1c(F)cccc1F [qVD-OPh, quinoline-Val-Asp-difluorophenoxymethylketone]
effect on plasma IgA-mediated neutrophil cell death (neutrophils): blocked

GM-CSF: Cytokine (Novartis Pharma) used as inflammatory stimulus
CD89 expression on neutrophils (human neutrophils; 8 hours, 100 ng/ml LPS or 10 ng/ml GM-CSF, blood neutrophils of healthy volunteers, FIG. 1A): CD89 expression was increased
time to significant upregulation of CD89 expression (human neutrophils; time course, FIG. 1B): 4 h
